Here are results for nine compounds from article PMC10344917, “Affinity and cooperativity modulate ternary complex formation to drive targeted protein degradation” (Nature Communications, 2023).

One experiment concerns the target T1, SMARCA2 (Homo sapiens, UniProt P51531).
T1 construct: endogenous in cells; host or cells: A375
The experiment is described as follows: SMARCA2 degradation, MSD assay, dose response. It is filed as cell-based. The arrangement: key to AUC (area under the dose-response curve): sum of trapezoids of POC vs dose points, h = 1. Conditions: for Dmax: A-375, SMARCA2 degraded; for Dmax / DC50: MSD assay, 2 h timepoint; for Dmax / AUC (area under the dose-response curve) / DC50: A375 cells; for AUC (area under the dose-response curve): SMARCA2 MSD assay, 2 h; for DC50: SMARCA2 degradation. On the procedure:
A375 cells were treated with SMARCA2 or BRD4 degraders for 2 h (4 h for BRD4) and generated lysates. SMARCA2 or BRD4 protein was measured with a variation of a sandwich ELISA that was assembled from commercially available antibodies as well as reagents and instrumentation procured from Meso Scale Discovery (MSD). Degradation parameter, DC50, is not suitable for PROTACs that induce partial/incomplete DR curves at a fixed time point; maximum drop in target protein level (Dmax) >>0. Conversely, the area under the curve (AUC) can be calculated as a degradation activity parameter for any DR curve, and it encompasses both the degradation potency (i.e., DC50) and efficacy (i.e., Dmax) of PROTACs.
A 1:3 compound dose-response titration was diluted in growth media (1:20), added to appropriate wells of a cell culture plate (1:10) and then assay plates were incubated at 37 °C, 5% CO2.
Plates were washed with 300 µL per well MSD wash buffer (MSD R61TX-1) between each step. Following the last incubation, plates were washed with MSD wash buffer then 150 µL of MSD read buffer (MSD R92TC-2) was added to each well. Plates were immediately read on a MSD plate reader (MSD Sector Imager 6000).
MSD electrochemiluminescence signals were subtracted by the average background signal from wells with lysis buffer alone. Normalized MSD values (POC) for individual compound treated wells were acquired by dividing background-subtracted assay signal by signal from vehicle control wells (cells + 0.1% DMSO) and multiplying by 100. This POC data was graphed using a nonlinear regression curve fit xy analysis and a log(inhibitor) vs response —variable slope (four parameter) model for dose response curves (Graphpad Prism 9, San Diego, CA, USA). To calculate area under the curve, all points on the curve were connected and vertical lines were drawn from each point down to y = 0, generating a series of trapezoids. The area of each trapezoid was determined using the equation A = (1/2)(h)(b1 + b2), where h = 1 (distance between points), b1 = POC of the first point and b2 = POC of the second point. The sum of all trapezoids provides an approximate area under the curve (AUC). For half-life (t1/2) determination in time course studies, a one-phase decay model was used for curve fitting and the time at which the curve crossed 50 POC was determined through interpolation (Graphpad Prism 9, San Diego, CA, USA).

A further experiment concerns the target T2, VHL/EloB/EloC (VBC) (Homo sapiens, UniProt P40337).
T2 construct: VHL (54-213), ElonginB (17-112) ElonginC (1-104); made in house
The experiment is described as follows: SPR binary binding of PROTAC to VBC-functionalized surface. Conditions: SPR; error SEM, N = 3; read-out: KLP (binary binding affinity between E3 ligase VHL and PROTAC). On the procedure: SPR experiments were performed on a Biacore 8 K or T200 instrument (Cytiva). […] The running buffer during immobilization was PBS with 0.005% P20. Either high-density (3000-4000 RU) or low-density (300-400 RU) VBC-functionalized surfaces were created, followed by equilibration in the running buffer for 3 h.
PROTACs (10 mM stocks in 100% DMSO) were diluted to 400 nM in a running buffer (20 mM Tris pH 7.5, 200 mM NaCl, 0.02% P20). This stock solution was then serially diluted in the running buffer containing final 2% DMSO. […] For SMARCA2 analysis, biotinylated proteins were introduced on a Series S streptavidin (SA) sensor chip at high-density (3000-4000 RU).
Raw sensorgrams were processed by performing double reference subtraction, solvent correction, and analysis was done using Biacore Insight Evaluation Software. Kinetic analysis was performed by fitting data to a 1:1 Langmuir interaction model and a steady-state affinity model was used to evaluate equilibrium binding affinity.

The structures appear in SMILES notation.

T2 sequence (Q15369 17-112): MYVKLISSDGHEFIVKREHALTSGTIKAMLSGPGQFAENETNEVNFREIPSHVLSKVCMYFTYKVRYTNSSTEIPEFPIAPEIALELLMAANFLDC
T2 sequence (Q15370 1-104, further chain): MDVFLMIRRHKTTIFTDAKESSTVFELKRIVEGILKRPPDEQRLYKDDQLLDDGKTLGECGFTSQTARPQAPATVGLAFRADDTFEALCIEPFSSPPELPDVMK
T2 sequence (P40337 54-213): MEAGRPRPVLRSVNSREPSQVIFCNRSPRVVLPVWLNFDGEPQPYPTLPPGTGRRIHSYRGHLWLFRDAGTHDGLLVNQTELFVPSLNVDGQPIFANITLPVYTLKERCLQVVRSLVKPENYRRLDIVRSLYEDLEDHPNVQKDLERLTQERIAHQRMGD
T1 sequence (P51531 whole entry): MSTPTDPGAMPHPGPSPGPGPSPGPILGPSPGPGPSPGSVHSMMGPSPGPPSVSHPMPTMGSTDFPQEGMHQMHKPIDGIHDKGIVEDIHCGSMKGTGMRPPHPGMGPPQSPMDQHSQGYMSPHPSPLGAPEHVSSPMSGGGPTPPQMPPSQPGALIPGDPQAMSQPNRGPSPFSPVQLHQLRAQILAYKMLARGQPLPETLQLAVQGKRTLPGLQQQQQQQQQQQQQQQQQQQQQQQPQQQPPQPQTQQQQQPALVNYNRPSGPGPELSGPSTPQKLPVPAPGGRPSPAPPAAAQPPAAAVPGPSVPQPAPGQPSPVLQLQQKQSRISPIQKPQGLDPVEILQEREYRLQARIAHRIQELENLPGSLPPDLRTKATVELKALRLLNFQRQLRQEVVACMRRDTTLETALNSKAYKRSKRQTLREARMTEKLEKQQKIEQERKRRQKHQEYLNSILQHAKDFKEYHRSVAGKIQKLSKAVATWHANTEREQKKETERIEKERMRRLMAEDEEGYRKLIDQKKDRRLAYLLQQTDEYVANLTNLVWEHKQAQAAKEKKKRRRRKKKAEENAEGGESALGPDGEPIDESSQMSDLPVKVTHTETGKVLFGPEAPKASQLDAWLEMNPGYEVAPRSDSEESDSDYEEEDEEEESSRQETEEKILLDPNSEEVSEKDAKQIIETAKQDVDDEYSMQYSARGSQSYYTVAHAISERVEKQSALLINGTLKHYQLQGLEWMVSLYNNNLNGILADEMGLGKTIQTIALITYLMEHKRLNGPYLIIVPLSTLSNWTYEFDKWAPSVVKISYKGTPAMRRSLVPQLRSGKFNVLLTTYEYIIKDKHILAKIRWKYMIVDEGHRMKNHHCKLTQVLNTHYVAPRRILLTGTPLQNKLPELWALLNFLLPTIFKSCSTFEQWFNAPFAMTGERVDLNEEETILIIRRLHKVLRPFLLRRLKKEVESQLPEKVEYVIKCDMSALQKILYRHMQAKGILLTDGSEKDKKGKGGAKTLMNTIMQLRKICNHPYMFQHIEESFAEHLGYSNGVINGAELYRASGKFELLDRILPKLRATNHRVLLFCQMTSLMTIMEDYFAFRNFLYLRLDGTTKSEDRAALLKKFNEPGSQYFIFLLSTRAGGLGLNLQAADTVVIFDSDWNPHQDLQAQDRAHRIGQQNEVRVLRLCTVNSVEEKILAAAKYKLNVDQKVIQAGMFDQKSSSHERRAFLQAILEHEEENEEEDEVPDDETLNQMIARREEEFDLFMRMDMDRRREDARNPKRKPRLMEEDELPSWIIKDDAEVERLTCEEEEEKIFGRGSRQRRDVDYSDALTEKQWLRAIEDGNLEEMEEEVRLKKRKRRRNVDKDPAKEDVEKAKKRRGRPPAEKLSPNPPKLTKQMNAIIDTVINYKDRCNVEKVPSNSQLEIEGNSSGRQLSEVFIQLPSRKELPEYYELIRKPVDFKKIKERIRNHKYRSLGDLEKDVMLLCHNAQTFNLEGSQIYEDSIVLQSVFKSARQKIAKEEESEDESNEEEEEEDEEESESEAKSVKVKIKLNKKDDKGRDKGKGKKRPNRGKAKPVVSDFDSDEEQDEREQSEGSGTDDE

As to `Cc1ncsc1-c1ccc(CNC(=O)C2C[C@@H](O)CN2C(=O)C(NC(=O)C2(F)CC2)C(C)(C)C)c(OCCc2ccc(CN3CCN(c4cc(-c5ccccc5O)nnc4N)CC3)cc2)c1` (stereo in doubt) [Compound 11, (2R,4R)-N-(2-(4-((4-(3-amino-6-(2-hydroxyphenyl)pyridazin-4-yl)piperazin-1-yl)methyl)phenethoxy)-4-(4-methylthiazol-5-yl)benzyl)-1-((R)-2-(1-fluorocyclopropane-1-carboxamido)-3,3-dimethylbutanoyl)-4-hydroxypyrrolidine-2-carboxamide, reference compound], at SMARCA2, the Dmax (commonly the largest share of the target that was removed) was found to be 53%; the “AUC (area under the dose-response curve)” value was found to be 119; the DC50 (in general, the concentration at which degradation of the target reaches its halfway point) was determined as 221 nM. Further, at VHL/EloB/EloC (VBC), the Kd is 59 ± 5 nM.

On to `Cc1ncsc1-c1ccc([C@H](C)NC(=O)[C@@H]2C[C@@H](O)CN2C(=O)[C@@H](NC(=O)c2ccnc(N3CCN(c4cc(-c5ccccc5O)nnc4N)CC3)c2)C(C)(C)C)cc1` [Compound 1, 2-(4-(3-Amino-6-(2-hydroxyphenyl)pyridazin-4-yl)piperazin-1-yl)-N-((S)-1-((2S,4R)-4-hydroxy-2-(((S)-1-(4-(4-methylthiazol-5-yl)phenyl)ethyl)carbamoyl)pyrrolidin-1-yl)-3,3-dimethyl-1-oxobutan-2-yl)isonicotinamide], for which, at SMARCA2, the Dmax came to 98%, the “AUC (area under the dose-response curve)” value worked out at 13 and the DC50 turned out to be 28 nM. The Kd at VHL/EloB/EloC (VBC) worked out at 60 ± 3 nM.

On to `Cc1ncsc1-c1ccc([C@H](C)NC(=O)[C@@H]2C[C@@H](O)CN2C(=O)[C@@H](NC(=O)c2cccc(N3CCN(c4cc(-c5ccccc5O)nnc4N)CC3)n2)C(C)(C)C)cc1` [Compound 2, 6-(4-(3-Amino-6-(2-hydroxyphenyl)pyridazin-4-yl)piperazin-1-yl)-N-((S)-1-((2S,4R)-4-hydroxy-2-(((S)-1-(4-(4-methylthiazol-5-yl)phenyl)ethyl)carbamoyl)pyrrolidin-1-yl)-3,3-dimethyl-1-oxobutan-2-yl)picolinamide], for which, on SMARCA2, the Dmax came out at 95%, the “AUC (area under the dose-response curve)” value is 28 and half-maximal degradation (DC50) was put at 95 nM. Besides, the Kd on VHL/EloB/EloC (VBC) was found to be 210 ± 18 nM.

As for `Cc1ncsc1-c1ccc([C@H](C)NC(=O)[C@@H]2C[C@@H](O)CN2C(=O)[C@@H](NC(=O)c2cccc(N3CCN(c4cc(-c5ccccc5O)nnc4N)CC3)c2)C(C)(C)C)cc1` [Compound 4, (2S,4R)-1-((S)-2-(3-(4-(3-Amino-6-(2-hydroxyphenyl)pyridazin-4-yl)piperazin-1-yl)benzamido)-3,3-dimethylbutanoyl)-4-hydroxy-N-((S)-1-(4-(4-methylthiazol-5-yl)phenyl)ethyl)pyrrolidine-2-carboxamide], on SMARCA2, the Dmax stood at 96%, the “AUC (area under the dose-response curve)” value is on record as 26 and the DC50 amounted to 99 nM. The Kd on VHL/EloB/EloC (VBC) was 166 ± 15 nM.

Turning to `Cc1ncsc1-c1ccc([C@H](C)NC(=O)[C@@H]2C[C@@H](O)CN2C(=O)[C@@H](NC(=O)c2csc(N3CCN(c4cc(-c5ccccc5O)nnc4N)CC3)n2)C(C)(C)C)cc1` [Compound 5, 2-(4-(3-Amino-6-(2-hydroxyphenyl)pyridazin-4-yl)piperazin-1-yl)-N-((S)-1-((2S,4R)-4-hydroxy-2-(((S)-1-(4-(4-methylthiazol-5-yl)phenyl)ethyl)carbamoyl)pyrrolidin-1-yl)-3,3-dimethyl-1-oxobutan-2-yl)thiazole-4-carboxamide], at SMARCA2, the Dmax is 96%, the “AUC (area under the dose-response curve)” value is given as 28 and the half-maximal degradation concentration (DC50) amounted to 112 nM. The Kd on VHL/EloB/EloC (VBC) amounted to 84.7 ± 5 nM.

For `Cc1ncsc1-c1ccc([C@H](C)NC(=O)[C@@H]2C[C@@H](O)CN2C(=O)[C@@H](NC(=O)CN2CCN(c3cc(-c4ccccc4O)nnc3N)CC2)C(C)(C)C)cc1` [Compound 6, (2S,4R)-1-((S)-2-(2-(4-(3-Amino-6-(2-hydroxyphenyl)pyridazin-4-yl)piperazin-1-yl)acetamido)-3,3-dimethylbutanoyl)-4-hydroxy-N-((S)-1-(4-(4-methylthiazol-5-yl)phenyl)ethyl)pyrrolidine-2-carboxamide, reference compound], at SMARCA2, the Dmax is 96%, the “AUC (area under the dose-response curve)” value is 26 and the DC50 was determined as 85 nM. Moreover, at VHL/EloB/EloC (VBC), the Kd is 11 ± 1 nM.

Regarding `Cc1ncsc1-c1ccc([C@H](C)NC(=O)[C@@H]2C[C@@H](O)CN2C(=O)[C@@H](NC(=O)Cc2ccnc(N3CCN(c4cc(-c5ccccc5O)nnc4N)CC3)c2)C(C)(C)C)cc1` [Compound 7, (2S,4R)-1-((S)-2-(2-(2-(4-(3-Amino-6-(2-hydroxyphenyl)pyridazin-4-yl)piperazin-1-yl)pyridin-4-yl)acetamido)-3,3-dimethylbutanoyl)-4-hydroxy-N-((S)-1-(4-(4-methylthiazol-5-yl)phenyl)ethyl)pyrrolidine-2-carboxamide], at SMARCA2, the maximal degradation (Dmax) is 55%, the “AUC (area under the dose-response curve)” value worked out at 122 and the DC50 was determined as 850 nM. Further, on VHL/EloB/EloC (VBC), the Kd was 9 ± 2 nM.

For `Cc1ncsc1-c1ccc([C@H](C)NC(=O)[C@@H]2C[C@@H](O)CN2C(=O)[C@@H](NC(=O)CCc2ccnc(N3CCN(c4cc(-c5ccccc5O)nnc4N)CC3)c2)C(C)(C)C)cc1` [Compound 8, (2S,4R)-1-((S)-2-(3-(2-(4-(3-Amino-6-(2-hydroxyphenyl)pyridazin-4-yl)piperazin-1-yl)pyridin-4-yl)propanamido)-3,3-dimethylbutanoyl)-4-hydroxy-N-((S)-1-(4-(4-methylthiazol-5-yl)phenyl)ethyl)pyrrolidine-2-carboxamide], on SMARCA2, the Dmax was determined as 80%, the “AUC (area under the dose-response curve)” value is on record as 75 and half-maximal degradation (DC50) was put at 379 nM. The Kd at VHL/EloB/EloC (VBC) amounted to 7 ± 2 nM.

`Cc1ncsc1-c1ccc([C@H](C)NC(=O)[C@@H]2C[C@@H](O)CN2C(=O)[C@@H](NC(=O)c2ccnc(N3CCN(c4cnnc(-c5ccccc5O)c4)CC3)c2)C(C)(C)C)cc1` [Compound 10, N-((S)-1-((2S,4R)-4-Hydroxy-2-(((S)-1-(4-(4-methylthiazol-5-yl)phenyl)ethyl)carbamoyl)pyrrolidin-1-yl)-3,3-dimethyl-1-oxobutan-2-yl)-2-(4-(6-(2-hydroxyphenyl)pyridazin-4-yl)piperazin-1-yl)isonicotinamide]: the SMARCA2 degradation at SMARCA2 (2 h MSD assay) is ~ 30%. For the same compound, at SMARCA2, the Dmax amounted to 65%, the “AUC (area under the dose-response curve)” value is 100 and the DC50 stood at 469 nM. Moreover, on VHL/EloB/EloC (VBC), the Kd was 60 ± 5 nM.
